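Step 1: Grow cells in 96-well plates. Step 2: Expose to compound for 48 hours at 5 concentrations. Step 3: Interpolate endpoints linearly; if unreached, use highest concentration. TGI: total growth inhibition.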
What was measured:
Assay in all cases: DTP human tumour cell line panel, 48 h
[1] = system: 786-0 renal
[2] = system: DU-145 prostate
[3] = system: UACC-257 melanoma
[4] = system: MALME-3M melanoma
[5] = system: SK-MEL-28 melanoma
[6] = system: HCT-15 colon
[7] = system: UO-31 renal
[8] = system: SNB-75 CNS
[9] = system: NCI-H522 lung
[10] = system: EKVX NSCLC
[11] = system: MDA-MB-435
[12] = system: BT-549 breast
[13] = system: HL-60(TB) leukemia
[14] = system: HOP-92 NSCLC
[15] = system: KM12 colon
[16] = system: CAKI-1 renal
[17] = system: ACHN renal
[18] = system: MDA-MB-231 breast
[19] = system: A549 NSCLC
[20] = system: COLO 205 colon
[21] = system: MOLT-4 leukemia
[22] = system: TK-10 renal
[23] = system: OVCAR-3 ovarian
[24] = system: SK-OV-3 ovarian
[25] = system: IGROV1 ovarian
[26] = system: K-562 leukemia
[27] = system: NCI/ADR-RES ovarian
[28] = system: SK-MEL-5 melanoma
[29] = system: U251 CNS
[30] = system: MDA-N
[31] = system: HT29 colon
[32] = system: SF-539 CNS
[33] = system: NCI-H23 lung
[34] = system: SNB-19 CNS
[35] = system: RXF 393 renal
[36] = system: HOP-62 NSCLC
[37] = system: SF-295 CNS
[38] = system: OVCAR-4 ovarian
[39] = system: LOX IMVI melanoma
[40] = system: SW-620 colon
[41] = system: SN12C renal
[42] = system: UACC-62 melanoma
[43] = system: NCI-H460 lung
[44] = system: NCI-H226 lung
[45] = system: CCRF-CEM leukemia
[46] = system: M14 melanoma
[47] = system: OVCAR-8 ovarian
[48] = system: A498 renal
[49] = system: OVCAR-5 ovarian
[50] = system: T-47D breast
[51] = system: HCT-116 colon
[52] = system: HS 578T breast
[53] = system: SR leukemia
[54] = system: PC-3 prostate
[55] = system: SF-268 CNS
[56] = system: MCF7 breast
[57] = system: SK-MEL-2 melanoma
[58] = system: RPMI-8226 leukemia
[59] = system: HCC-2998 colon

## Nc1cc2c(nnn2C2OC(COCc3ccccc3)C(OCc3ccccc3)C2OCc2ccccc2)c(=O)[nH]1 (stereo unspecified)
[1]
  TGI: > 100 µM
[2]
  TGI: > 100 µM
[3]
  TGI: 58.6 µM
[4]
  TGI: > 100 µM
[5]
  TGI: > 100 µM
[6]
  TGI: > 100 µM
[7]
  TGI: > 100 µM
[8]
  TGI: > 100 µM
[9]
  TGI: > 100 µM
[10]
  TGI: 46.1 µM
[11]
  TGI: 40.4 µM
[12]
  TGI: 90.3 µM
[13]
  TGI: 28.1 µM
[14]
  TGI: > 100 µM
[15]
  TGI: 54.6 µM
[16]
  TGI: > 100 µM
[17]
  TGI: > 100 µM
[18]
  TGI: > 100 µM
[19]
  TGI: > 100 µM
[20]
  TGI: 20.3 µM
[21]
  TGI: 38.9 µM
[22]
  TGI: 52.1 µM
[23]
  TGI: > 100 µM
[24]
  TGI: > 100 µM
[25]
  TGI: > 100 µM
[26]
  TGI: 84.6 µM
[27]
  TGI: > 100 µM
[28]
  TGI: 19.9 µM
[29]
  TGI: > 100 µM
[30]
  TGI: 34 µM
[31]
  TGI: 41.8 µM
[32]
  TGI: 69.5 µM
[33]
  TGI: > 100 µM
[34]
  TGI: > 100 µM
[35]
  TGI: 39.5 µM
[36]
  TGI: > 100 µM
[37]
  TGI: > 100 µM
[38]
  TGI: > 100 µM
[39]
  TGI: 53.2 µM
[40]
  TGI: > 100 µM
[41]
  TGI: 40.3 µM
[42]
  TGI: 38.1 µM
[43]
  TGI: 92.3 µM
[44]
  TGI: 53.7 µM
[45]
  TGI: > 100 µM
[46]
  TGI: 64.4 µM
[47]
  TGI: > 100 µM
[48]
  TGI: > 100 µM
[49]
  TGI: > 100 µM
[50]
  TGI: > 100 µM
[51]
  TGI: 46.9 µM
[52]
  TGI: > 100 µM
[53]
  TGI: 35.6 µM
[54]
  TGI: > 100 µM
[55]
  TGI: > 100 µM
[56]
  TGI: 83.9 µM
[57]
  TGI: 28.3 µM

## COc1cc(/C=C2/SC(c3ccccc3)N(c3cccc(Cl)c3)C2=O)cc(OC)c1OC (stereo unspecified)
[1]
  TGI: 36.4 µM
[2]
  TGI: > 100 µM
[3]
  TGI: > 100 µM
[4]
  TGI: 96.5 µM
[5]
  TGI: 90.1 µM
[6]
  TGI: > 100 µM
[7]
  TGI: > 100 µM
[9]
  TGI: 26.2 µM
[10]
  TGI: > 100 µM
[11]
  TGI: 93.4 µM
[12]
  TGI: 72 µM
[13]
  TGI: > 100 µM
[14]
  TGI: 77.4 µM
[15]
  TGI: > 100 µM
[16]
  TGI: > 100 µM
[17]
  TGI: > 100 µM
[18]
  TGI: > 100 µM
[19]
  TGI: > 100 µM
[20]
  TGI: > 100 µM
[21]
  TGI: > 100 µM
[22]
  TGI: > 100 µM
[23]
  TGI: > 100 µM
[24]
  TGI: > 100 µM
[26]
  TGI: > 100 µM
[27]
  TGI: 73.9 µM
[28]
  TGI: > 100 µM
[29]
  TGI: 86.8 µM
[30]
  TGI: 43.2 µM
[31]
  TGI: 72.6 µM
[32]
  TGI: 43 µM
[33]
  TGI: > 100 µM
[34]
  TGI: > 100 µM
[35]
  TGI: 53.1 µM
[36]
  TGI: > 100 µM
[58]
  TGI: 58.3 µM
[37]
  TGI: > 100 µM
[38]
  TGI: > 100 µM
[39]
  TGI: 35.1 µM
[40]
  TGI: > 100 µM
[41]
  TGI: 37.2 µM
[42]
  TGI: > 100 µM
[43]
  TGI: > 100 µM
[44]
  TGI: > 100 µM
[45]
  TGI: 39.9 µM
[46]
  TGI: > 100 µM
[47]
  TGI: 59.6 µM
[48]
  TGI: > 100 µM
[49]
  TGI: > 100 µM
[50]
  TGI: > 100 µM
[51]
  TGI: 34.8 µM
[52]
  TGI: > 100 µM
[53]
  TGI: 81.8 µM
[59]
  TGI: > 100 µM
[55]
  TGI: > 100 µM
[56]
  TGI: > 100 µM
[57]
  TGI: > 100 µM

## CC1=NNC(=O)C1C1CC(c2c[nH]c3ccccc23)=NNC1=S (stereo unspecified)
[1]
  TGI: > 100 µM
[2]
  TGI: > 100 µM
[3]
  TGI: > 100 µM
[4]
  TGI: > 100 µM
[5]
  TGI: > 100 µM
[6]
  TGI: > 100 µM
[7]
  TGI: > 100 µM
[8]
  TGI: > 100 µM
[9]
  TGI: > 100 µM
[10]
  TGI: > 100 µM
[11]
  TGI: > 100 µM
[12]
  TGI: > 100 µM
[13]
  TGI: > 100 µM
[14]
  TGI: > 100 µM
[15]
  TGI: > 100 µM
[16]
  TGI: > 100 µM
[17]
  TGI: > 100 µM
[18]
  TGI: > 100 µM
[19]
  TGI: > 100 µM
[20]
  TGI: > 100 µM
[21]
  TGI: > 100 µM
[22]
  TGI: > 100 µM
[23]
  TGI: > 100 µM
[24]
  TGI: > 100 µM
[26]
  TGI: > 100 µM
[27]
  TGI: > 100 µM
[28]
  TGI: > 100 µM
[29]
  TGI: > 100 µM
[30]
  TGI: > 100 µM
[31]
  TGI: > 100 µM
[32]
  TGI: > 100 µM
[33]
  TGI: > 100 µM
[34]
  TGI: > 100 µM
[35]
  TGI: > 100 µM
[36]
  TGI: > 100 µM
[58]
  TGI: > 100 µM
[37]
  TGI: > 100 µM
[40]
  TGI: > 100 µM
[41]
  TGI: > 100 µM
[42]
  TGI: > 100 µM
[43]
  TGI: > 100 µM
[44]
  TGI: > 100 µM
[45]
  TGI: > 100 µM
[46]
  TGI: > 100 µM
[47]
  TGI: > 100 µM
[48]
  TGI: > 100 µM
[49]
  TGI: > 100 µM
[50]
  TGI: > 100 µM
[51]
  TGI: > 100 µM
[52]
  TGI: > 100 µM
[54]
  TGI: > 100 µM
[55]
  TGI: > 100 µM
[57]
  TGI: > 100 µM

## N#Cc1n[nH]n(C2CCCCC2)c1=O
[1]
  TGI: > 100 µM
[2]
  TGI: > 100 µM
[3]
  TGI: > 100 µM
[4]
  TGI: > 100 µM
[5]
  TGI: > 100 µM
[6]
  TGI: > 100 µM
[7]
  TGI: > 100 µM
[8]
  TGI: > 100 µM
[9]
  TGI: > 100 µM
[10]
  TGI: > 100 µM
[11]
  TGI: > 100 µM
[12]
  TGI: > 100 µM
[13]
  TGI: > 100 µM
[15]
  TGI: > 100 µM
[16]
  TGI: > 100 µM
[17]
  TGI: > 100 µM
[18]
  TGI: > 100 µM
[19]
  TGI: > 100 µM
[20]
  TGI: > 100 µM
[21]
  TGI: > 100 µM
[22]
  TGI: > 100 µM
[23]
  TGI: > 100 µM
[24]
  TGI: > 100 µM
[25]
  TGI: > 100 µM
[27]
  TGI: > 100 µM
[28]
  TGI: > 100 µM
[29]
  TGI: > 100 µM
[30]
  TGI: > 100 µM
[31]
  TGI: > 100 µM
[32]
  TGI: > 100 µM
[33]
  TGI: > 100 µM
[34]
  TGI: > 100 µM
[35]
  TGI: > 100 µM
[36]
  TGI: > 100 µM
[37]
  TGI: > 100 µM
[38]
  TGI: > 100 µM
[39]
  TGI: > 100 µM
[40]
  TGI: > 100 µM
[41]
  TGI: > 100 µM
[42]
  TGI: > 100 µM
[43]
  TGI: > 100 µM
[44]
  TGI: > 100 µM
[45]
  TGI: > 100 µM
[46]
  TGI: > 100 µM
[47]
  TGI: > 100 µM
[48]
  TGI: > 100 µM
[49]
  TGI: > 100 µM
[50]
  TGI: > 100 µM
[51]
  TGI: > 100 µM
[52]
  TGI: > 100 µM
[59]
  TGI: > 100 µM
[54]
  TGI: > 100 µM
[55]
  TGI: > 100 µM
[56]
  TGI: > 100 µM
[57]
  TGI: > 100 µM

Reference: PubChem BioAssay (NCI)
